Experimental findings from patent US20070117840A1, “Receptor antagonist” (priority 2004, published 2007) are described below.

In assay [1] the target is T1, human-type OT7T022 (Homo sapiens, UniProt Q9GZQ6).
T1 construct: expressed in transfected cells; host or cells: CHO cells (membrane fraction)
Description: Binding inhibiting activity using human-type OT7T022-expressing CHO cell (125I-Y-RFRP-3). Conditions: human-type OT7T022-expressing CHO cell membrane fraction, 125I-labeled Y-RFRP-3 100 pM; read-out: IC50 value (binding inhibiting rate). Here is the method: Assessment of Binding Inhibiting Activity of Test Compound Using Human-Type OT7T022-Expressing CHO Cell
(1) Preparation of Iodine-Labeled Entity of Human-Type RFRP-3 (Y-RFRP-3)
A part thereof was 1/100 diluted, radioactivity was measured with a γ-counter, and the remaining authentic product was distributed, which was stored at −30° C.
(2) Assessment of Binding Inhibiting Activity
For measuring non-specific binding, non-labeled Y-RFRP-3 was further added to […]. Then, a membrane fraction was transferred to a unifilter GF/C (Perkin Elmer) by filtering the reaction solution using a cell harvester (Perkin Elmer), and this was washed with a cooled 50 mM Tris buffer (pH 7.5) five times. The filter was dried, Microsinti (Packard) was added to the filter, and radioactivity was measured with Topcount (Packard).
A binding inhibiting rate (IC50 value) of a test compound is shown in [Table 1].

For a further assay, the target named is T2, rat-type OT7T022 (Rattus norvegicus, UniProt Q9EP86).
T2 construct: expressed in transfected cells; host or cells: CHO cells (membrane fraction)
T2 sequence (Q9EP86 whole entry): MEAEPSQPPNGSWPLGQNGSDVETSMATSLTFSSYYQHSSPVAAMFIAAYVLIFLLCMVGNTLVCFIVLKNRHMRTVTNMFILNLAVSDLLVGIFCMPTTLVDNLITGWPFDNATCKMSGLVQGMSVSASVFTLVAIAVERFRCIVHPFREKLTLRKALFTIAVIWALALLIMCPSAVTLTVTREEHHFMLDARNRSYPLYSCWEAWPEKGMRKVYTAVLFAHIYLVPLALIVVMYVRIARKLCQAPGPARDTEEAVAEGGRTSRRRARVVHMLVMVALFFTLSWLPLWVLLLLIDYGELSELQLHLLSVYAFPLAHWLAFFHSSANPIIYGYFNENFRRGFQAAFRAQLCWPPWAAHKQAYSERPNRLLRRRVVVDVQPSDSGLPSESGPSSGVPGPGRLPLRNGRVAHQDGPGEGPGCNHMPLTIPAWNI
Description: Binding inhibiting activity using rat-type OT7T022-expressing CHO cell membrane fraction. Conditions: iodine-labeled Y-RFRP-3 100 pM. As to the method:
Assessment of Binding Inhibiting Activity of Test Compound Using Rat-Type OT7T022-Expressing CHO Cell
(1) Preparation of Rat-Type OT7T022-Expressing CHO Cell Membrane Fraction
A flask in which a rat-type OT7T022-expressing CHO cell had been cultured was washed with 5 mM EDTA/PBS, cells were peeled with 5 mM EDTA/PBS, and cells were recovered by centrifugation, suspended in 25 mL of a buffer for preparing a membrane fraction (50 mM Tris-HCl, pH 7.5, 5 mM EDTA, 0.5 mM PMSF (manufactured by Wako Pure Chemical Industries, Ltd.), […] leupeptin (manufactured by Peptide Laboratory), 0.1 μg/mL pepstatin A (manufactured by Peptide Laboratory), 4 μg/mL E-64 (manufactured by Peptide Laboratory)), and homogenized on an ice using Polytron (12,000 rpm, 15 seconds×3 times). This was centrifuged in a high speed cooling centrifuge at 4° C. and 1,000 g for 10 minutes, and the supernatant was recovered. 25 mL of a buffer for preparing a membrane fraction was added to precipitates, and the supernatant was recovered by the same procedure. […] The pellet was suspended in a small amount of a buffer for preparing a membrane fraction, this was suspended using a Teflon (registered trade mark) homogenizer, a protein amount was measured using a part, and the remaining was dispensed, and stored at −80° C. […]

Assay [2] deals with T1, human-type OT7T022. Description: Antagonist activity in cAMP production inhibiting test system using human-type OT7T022-expressing CHO cell. It counts as cell-based. Particulars: intracellular cAMP, agonist human-type RFRP-3-8 20 nM, forskolin 2 μM. As to the method:
Test of Antagonist Activity of Compound in cAMP Production Inhibiting Test System Using Human-Type OT7T022-Expressing CHO Cell
Antagonist activity of a test compound was measured in an intracellular cAMP production inhibiting test system of a CHO cell expressing human-type OT7T022. In the cAMP production inhibiting test, as an assay buffer, a Hanks' balanced salt solution (Gibco) to which 20 mM HEPES pH 7.4, 0.1% bovine serum albumin, and 0.2 mM 3-isobutyl-1-methylxanthine (Sigma) had been added, was used. A sample compound was adjusted with an assay buffer so that the final concentration became 10^−5M, 10^−6M, 10^−7M, 10^−8M, or 10^−10M. […] A human-type OT7T022-expressing CHO cell was passaged on a 96-well plate at 4×10^4/well, and cultured at 37° C., 5% CO2 and 95% air for one day. The plate which had been cultured for one day was washed with an assay buffer (150 μl) two times and, after 30 minutes, this was cultured for 30 minutes at 37° C. and 100% air. After washed with an assay buffer (150 μl) two times, 50 μl of a sample compound solution and, then, 50 μl of an agonist+forskolin solution were added, the mixture was stirred well and, after 30 minutes, this was cultured for 30 minutes at 37° C. and 100% air. An intracellular cAMP amount was measured according to a protocol of the present kit using cAMP-Screen™ system (ABI). […]

Assay [3] can be described thus: Blood glucose concentration after intravenous administration of RFRP-1 to rat. Format: in vivo, Wistar male rat. Conditions: 10 nmol/kg, 5 minutes and 15 minutes after administration, compared with physiological saline group. From the text:
In FIG. 1, (-∘-) represents a blood glucose concentration of a physiological saline administration group, (-▴-) represents a blood glucose concentration of an RFRP-1 1 nmol/kg administration group, and (-▪-) represents a blood concentration of an RFRP-1 10 nmol/kg administration group.
Blood Glucose Concentration Increasing Activity of RFRP
As RFRP, human RFRP-1 (37 amino acids) consisting of an amino acid sequence of 56th (Ser) to 92nd (Phe) of an amino acid sequence represented by SEQ ID No.: 3. Hereinafter, this peptide is abbreviated as RFRP-1.
In order to study influence of peripheral administration of RFRP-1 on a blood glucose concentration, operation for collecting blood under free moving was performed. A mature Wistar male rat (weight 310 to 350 g at operation) was anesthetized with 50 mg/kg of pentobarbital by intraperitoneal administration. The rat was fixed on an anatomic pad in a supine position, and a left jugular vein was exposed. […]
Overnight after operation, 300 μl of blood was collected using a tuberculin injection syringe having a dose of 1 ml and a 25 gauge injection needle (both Telmo) before administration of RFRP-1. […] A blood glucose concentration was measured using Fuji Drichem 3500 (FUJIFILM).

The nature of assay [4]: Blood glucagon and insulin concentration after intravenous administration of RFRP-1 to rat. It counts as in vivo, Wistar male rat. From the text: In FIG. 2, (-∘-) represents a blood glucagon concentration of a physiological saline administration group, (-▴-) represents a blood glucagon concentration of an RFRP-1 1 nmol/kg administration group, and (-▪-) represents a blood glucagon concentration of an RFRP-1 10 nmol/kg administration group.
In FIG. 3, (-∘-) represents a blood insulin concentration of a physiological saline administration group, (-▴-) represents a blood insulin concentration of an RFRP-1 1 nmol/kg administration group, and (-▪-) represents a blood insulin concentration of an RFRP-1 10 nmol/kg administration group. A value indicates mean±[…] (mean±SE) (n=4).
Pancreatic Glucagon Secretion Promoting Activity of RFRP
In order to study mechanism of blood glucose concentration increasing activity of RFRP-1, influence of RFRP-1 on a blood concentration of glucagon and insulin which are known as a hormone imparting a variation to a blood glucose concentration was studied. A mature Wistar male rat (weight 310 to 350 g at operation) was operated for collecting blood under free moving. Overnight after operation, 300 μl of a blood was collected using a tuberculin injection syringe having a dose of 1 ml and a 25 gauge injection needle (both Telmo) before administration of RFRP-1. […]

T1 sequence (Q9GZQ6 whole entry): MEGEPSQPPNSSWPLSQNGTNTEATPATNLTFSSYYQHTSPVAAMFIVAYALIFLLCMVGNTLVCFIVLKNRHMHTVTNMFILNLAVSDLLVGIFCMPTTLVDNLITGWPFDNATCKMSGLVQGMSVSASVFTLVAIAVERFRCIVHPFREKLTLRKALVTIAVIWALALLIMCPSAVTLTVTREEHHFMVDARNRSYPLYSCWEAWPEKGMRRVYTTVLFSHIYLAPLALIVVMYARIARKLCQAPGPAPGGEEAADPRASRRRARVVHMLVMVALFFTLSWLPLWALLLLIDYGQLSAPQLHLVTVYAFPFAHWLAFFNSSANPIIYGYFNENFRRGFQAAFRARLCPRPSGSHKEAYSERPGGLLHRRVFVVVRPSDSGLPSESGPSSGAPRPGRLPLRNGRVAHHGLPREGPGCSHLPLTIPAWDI

With `CC(C)(C)Cn1c(C(=O)OC(C)(C)C)c(O)c2ccc(F)cc2c1=O` [Example 1, tert-Butyl 7-fluoro-4-hydroxy-2-neopentyl-1-oxo-1,2-dihydro-3-isoquinolinecarboxylate], the results for the IC50 at human-type OT7T022 [1], on rat-type OT7T022 and on human-type OT7T022 [2] were less than 1 µM, less than 1 µM and less than 5 µM, respectively.
Turning to `CC(C)(C)Cn1c(C(=O)OC(C)(C)C)c(O)c2cc(Cl)c(Cl)cc2c1=O` [Example 3, tert-Butyl 6,7-dichloro-4-hydroxy-2-neopentyl-1-oxo-1,2-dihydro-3-isoquinolinecarboxylate], the IC50 on human-type OT7T022 [1] was less than 1 µM; on rat-type OT7T022 it was less than 1 µM; on human-type OT7T022 [2] it was less than 5 µM.
For the compound `CCCCOc1c(C(=O)OC(C)(C)C)n(CC(C)(C)C)c(=O)c2ccc(F)cc12` [Reference Example 12, tert-Butyl 4-butoxy-6-fluoro-2-neopentyl-1-oxo-1,2-dihydro-3-isoquinolinecarboxylate], on human-type OT7T022 [1], the IC50 was less than 1 µM.
As for “RFRP-1: human RFRP-1 (37 amino acids) consisting of 56th (Ser) to 92nd (Phe) of the amino acid sequence of SEQ ID No.: 3 (SLNFEELKDWGPKNVIKMSTPAVNKMPHSFANLPLRF; Human)”, the blood glucose concentration result in assay [3] was “significant (p<0.05, n=4) activity of increasing a blood glucose concentration”. In assay [4], the blood insulin concentration entry was “not recognized”.
